Test [1] deals with T1, human orexin 1 receptor (hOx1R) (Homo sapiens, UniProt O43613).
T1 construct: expressed in transfected cells
T1 sequence (O43613 1-425): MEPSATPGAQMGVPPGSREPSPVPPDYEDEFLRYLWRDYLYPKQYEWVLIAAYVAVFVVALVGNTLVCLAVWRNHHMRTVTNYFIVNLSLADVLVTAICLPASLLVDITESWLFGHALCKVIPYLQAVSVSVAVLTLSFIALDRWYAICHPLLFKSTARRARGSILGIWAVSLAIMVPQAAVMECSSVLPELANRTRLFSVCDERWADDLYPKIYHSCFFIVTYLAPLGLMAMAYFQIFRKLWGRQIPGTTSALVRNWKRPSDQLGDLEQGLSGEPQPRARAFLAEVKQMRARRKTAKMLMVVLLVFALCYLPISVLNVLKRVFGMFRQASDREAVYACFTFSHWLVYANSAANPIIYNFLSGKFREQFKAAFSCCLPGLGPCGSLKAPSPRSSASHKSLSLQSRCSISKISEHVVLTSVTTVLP
As to the kind of experiment: Calcium accumulation in cells (FLIPR), antagonism of orexin A, hOx1R. Type of test: cell-based. Conditions: for Kd: cells expressing human orexin 1 receptor, IC50 vs orexin A converted by Cheng and Prusoff correction; for inhibition at 10 µM: measured at a concentration of 10 μM of compound (cells marked ^a). The essentials:
(§1)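 Serum-starved receptor-expressing cells were loaded with Fluo-4-AM (2 μM) plus probenecid (0.1 mM) in HEPES buffer, pH 7.4, with 1% BSA, and Ca2+ fluorescence was read on FLIPR. Compounds (10^−9–10^−5 M) were added first, and orexin A was added one hour later to measure antagonism.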

Test [2] concerns the target T2, human orexin 2 receptor (hOx2R) (Homo sapiens, UniProt O43614).
T2 construct: expressed in transfected cells
T2 sequence (O43614 1-444): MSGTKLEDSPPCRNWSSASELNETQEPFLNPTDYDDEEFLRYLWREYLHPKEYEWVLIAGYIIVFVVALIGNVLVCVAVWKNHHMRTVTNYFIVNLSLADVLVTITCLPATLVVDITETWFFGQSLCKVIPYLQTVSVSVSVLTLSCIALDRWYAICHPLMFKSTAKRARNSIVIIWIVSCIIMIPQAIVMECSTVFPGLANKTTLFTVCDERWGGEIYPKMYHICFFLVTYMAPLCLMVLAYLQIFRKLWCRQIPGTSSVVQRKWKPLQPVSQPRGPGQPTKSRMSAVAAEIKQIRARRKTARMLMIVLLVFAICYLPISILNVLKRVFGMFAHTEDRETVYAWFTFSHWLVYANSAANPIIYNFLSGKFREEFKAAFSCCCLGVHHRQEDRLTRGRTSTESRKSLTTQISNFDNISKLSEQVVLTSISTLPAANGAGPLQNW
As to the kind of experiment: Calcium accumulation in cells (FLIPR), antagonism of orexin A, hOx2R. In kind it is cell-based. The conditions noted are these: for Kd: cells expressing human orexin 2 receptor, IC50 vs orexin A converted by Cheng and Prusoff correction; for inhibition at 10 µM: measured at a concentration of 10 μM of compound (cells marked ^a). The essentials:
as §1

The target in test [3] is T1, human orexin 1 receptor (hOx1R). As to the kind of experiment: Radioligand binding assay ([125I]orexin A competition), hOx1R. Conditions: CHO or HEK cell membranes, 1 h room temperature. The essentials: (§2)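 Membranes from CHO or HEK cells expressing the human receptor, incubated 1 h at room temperature with […] [125I]orexin A and compound in HEPES pH 7.5 buffer with BSA, MgCl2, CaCl2 and tween.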

Test [4] deals with T2, human orexin 2 receptor (hOx2R). As to the kind of experiment: Radioligand binding assay ([125I]orexin A competition), hOx2R. Conditions: CHO or HEK cell membranes, 1 h room temperature. The essentials:
as §2

SMILES strings stand for the structures. Some results are limits rather than exact numbers.

Consider `CN(C(=O)c1cc(C(F)(F)F)cc(C(F)(F)F)c1)C(CCNC(=O)c1ccccn1)Cc1ccc(Cl)cc1` (stereo not drawn) [Example 16, Pyridine-2-carboxylic acid [3-[(3,5-bis-trifluoromethyl-benzoyl)-methyl-amino]-4-(4-chloro-phenyl)-butyl]-amide], for which the Kd was 1510 nM in test [1], 44 nM in test [2], over 10000 nM in test [3] and 74 nM in test [4].
For `Cc1cc(F)cc(C(=O)N(C)[C@H](CCNC(=O)c2cccn2C)Cc2ccccc2)c1` [Example 124, 1-Methyl-1H-pyrrole-2-carboxylic acid {(S)-3-[(3-fluoro-5-methyl-benzoyl)-methyl-amino]-4-phenyl-butyl}-amide], in that order: 710 nM, 13 nM, 599 nM and 39 nM.
As for `CN(C(=O)c1ccc2ccccc2c1)[C@H](CCNC(=O)c1ccccn1)Cc1ccc(Cl)cc1` [Example 53, Pyridine-2-carboxylic acid {(S)-4-(4-chloro-phenyl)-3-[methyl-(naphthalene-2-carbonyl)-amino]-butyl}-amide], the inhibition at 10 µM in test [1] came out at 13%. Also, the Kd came to 748 nM in test [2], 3410 nM in test [3] and 1460 nM in test [4].
As for `CN(C(=O)c1ccccc1)[C@H](CCNC(=O)c1ccccn1)Cc1ccc(F)cc1` [Example 66, Pyridine-2-carboxylic acid [(S)-3-(benzoyl-methyl-amino)-4-(4-fluoro-phenyl)-butyl]-amide], the inhibition at 10 µM was determined as 0% in test [1] and 33% in test [2]. Also, the values for the Kd in test [3] and in test [4] were over 10000 nM and 7120 nM, respectively.
Take `CN(C(=O)c1cccc(C(F)(F)F)c1)[C@H](CCNC(=O)c1ccccn1)Cc1ccccc1` [Example 4, Pyridine-2-carboxylic acid {(S)-3-[methyl-(3-trifluoromethyl-benzoyl)-amino]-4-phenyl-butyl}-amide]: the Kd in test [1] turned out to be 173 nM; in test [2], 44 nM; in test [3] it was 112 nM; in test [4], 14 nM.
For `CN(C(=O)c1cccc2c1OCO2)[C@H](CCNC(=O)c1ccccn1)Cc1ccc(Cl)cc1` [Example 65, Pyridine-2-carboxylic acid [(S)-3-[(benzo[1,3]dioxole-4-carbonyl)-methyl-amino]-4-(4-chloro-phenyl)-butyl]-amide], the values for the inhibition at 10 µM in test [1] and in test [2] were 3% and 41%, respectively. Also, the Kd in test [3] was over 10000 nM; in test [4], 6980 nM.
For the compound `CN(C(=O)c1cccc2ccccc12)[C@H](CCNC(=O)c1ccccn1)Cc1ccc(Cl)cc1` [Example 35, Pyridine-2-carboxylic acid {(S)-4-(4-chloro-phenyl)-3-[methyl-(naphthalene-1-carbonyl)-amino]-butyl}-amide], the Kd in test [1] was 80 nM; in test [2], 9 nM; in test [3], 1330 nM; in test [4], 468 nM.
For `COc1ccc(C(=O)N(C)[C@H](CCNC(=O)c2nc3ccccc3n2C)Cc2ccccc2)cc1OC` [Example 80, 1-Methyl-1H-benzoimidazole-2-carboxylic acid {(S)-3-[(3,4-dimethoxy-benzoyl)-methyl-amino]-4-phenyl-butyl}-amide], in that order: 541 nM, 97 nM, 59 nM and 98 nM.
For `CN(C(=O)c1cccc2c1OCO2)[C@H](CCNC(=O)c1ccccn1)Cc1ccc(F)cc1` [Example 63, Pyridine-2-carboxylic acid [(S)-3-[(benzo[1,3]dioxole-4-carbonyl)-methyl-amino]-4-(4-fluoro-phenyl)-butyl]-amide], the results for the inhibition at 10 µM in test [1] and in test [2] were 0% and 24%, respectively. The Kd in test [3] is over 10000 nM; in test [4] it was 5900 nM.
Take `CN(C(=O)c1cccc2c1OCCO2)[C@H](CCNC(=O)c1ccccn1)Cc1ccccc1` [Example 54, Pyridine-2-carboxylic acid {(S)-3-[(2,3-dihydro-benzo[1,4]dioxine-5-carbonyl)-methyl-amino]-4-phenyl-butyl}-amide]: the inhibition at 10 µM in test [1] is 9%. Also, the Kd in test [2] is 958 nM; in test [3] it was over 10000 nM; in test [4], 1730 nM.
In the case of `CN(C(=O)c1ccc2ccccc2c1)[C@H](CCNC(=O)c1nc2ccccc2n1C)Cc1ccccc1` [Example 44, 1-Methyl-1H-benzoimidazole-2-carboxylic acid {(S)-3-[methyl-(naphthalene-2-carbonyl)-amino]-4-phenyl-butyl}-amide], the Kd in test [1] turned out to be 33 nM; in test [2] it was 90 nM; in test [3], 82 nM; in test [4], 781 nM.
For `CN(C(=O)c1cccc2ccccc12)[C@H](CCNC(=O)c1ccccn1)Cc1ccccc1` [Example 6, Pyridine-2-carboxylic acid {(S)-3-[methyl-(naphthalene-1-carbonyl)-amino]-4-phenyl-butyl}-amide], in that order: 31 nM, 57 nM, 25 nM and 20 nM.
For `COc1cccc(C(=O)N(C)[C@H](CCNC(=O)c2ccccn2)Cc2ccccc2)c1` [Example 52, Pyridine-2-carboxylic acid {(S)-3-[(3-methoxy-benzoyl)-methyl-amino]-4-phenyl-butyl}-amide], in that order: 466 nM, 916 nM, 2420 nM and 963 nM.
For `CN(C(=O)c1cccc2ccccc12)[C@H](CCNC(=O)c1nc2ccccc2n1C)Cc1ccc(Cl)cc1` [Example 26, 1-Methyl-1H-benzoimidazole-2-carboxylic acid {(S)-4-(4-chloro-phenyl)-3-[methyl-(naphthalene-1-carbonyl)-amino]-butyl}-amide], in that order: 122 nM, 10 nM, 3280 nM and 308 nM.
Regarding `COc1ccc(C(=O)N(C)[C@H](CCNC(=O)c2ccccn2)Cc2ccccc2)cc1` [Example 42, Pyridine-2-carboxylic acid {(S)-3-[(4-methoxy-benzoyl)-methyl-amino]-4-phenyl-butyl}-amide], the Kd was found to be 909 nM in test [1], 826 nM in test [2], 1730 nM in test [3] and 688 nM in test [4].

By Kd is commonly meant a measure of binding affinity in units of concentration. As a reminder, the inhibition is the drop in the measured response relative to a control, in per cent.

These data come from patent US20100222396A1 (Novartis AG, priority 2009, published 2010).
